Legend:
[1] = pharmacokinetics in the ARID1A mutant HT1376 xenograft mouse model; format: in vivo
Experimental: (§1) Response of Compound 1 treatment relative to other EZH2, dual EZH1 and EZH2, or EED inhibitors was analyzed in vitro and in vivo.

[2] = long-term cell viability assays in vitro, comparison of PRC2 inhibitors; format: cell-based
Experimental: as §1

[3] = test system: ARID1A mutant HT1376 bladder cancer xenografts; assay: HT1376 xenograft tumor growth inhibition; format: in vivo, mice; details: ARID1A mutated HT1376 xenograft, 75 mg/kg QD; for tumor growth inhibition (TGI) compared to vehicle: day 27
Experimental: Data represented as mean tumor volume+SEM, with n=5 mice per group for all groups except 150 mg/kg, which had n=3. P-values calculated using 2-way ANOVA up to day 30, ns=p>0.05, *p<0.05. […]
Cell line derived xenograft tumor experiments were performed at WuXi AppTec, Shanghi, China. Patient derived xenograft experiments were performed at Crown BioScience Inc., Taicang Jiangsu Province, China, or Champions Oncology, Rockville, MD, US. All the procedures related to animal handling, care and the treatment in the xenograft studies were performed according to the guidelines approved by the Institutional Animal Care and Use Committee (IACUC) of WuXi AppTec or Crown BioScience Inc. following the guidance of the Association for Assessment and Accreditation of Laboratory Animal Care (AAALAC). The mice were kept in individual ventilation cages at constant temperature and humidity with 3-5 animals in each cage. Mice were checked daily for any effects of tumor growth and/or treatments on normal behavior such as mobility, food and water consumption, body weight gain/loss, eye, and any other abnormal effects. […] Animal body weight was monitored regularly as an indirect measurement of toxicity. Supplemented diet was provided after cell inoculation for all groups to help with body weight maintenance. If an animal lost >15% body weight, their treatments were suspended accordingly then resumed when body weight loss returned to <10%.
The HT1376 and HT1197 bladder cancer cell lines and Karpas-422 lymphoma cell line were expanded in vitro under routine subculturing procedures in the medium recommended by the supplier, harvested while in the exponential growth phase, and counted for tumor inoculation. For HT1376 and Karpas-422 studies, female CB17 SCID mice at 6-8 weeks of age were used for study initiation; for the HT1197 study, female Balb/c nude mice at 6-8 weeks of age were used. Each mouse was inoculated subcutaneously in the right flank with tumor cells in 0.2 ml PBS mixed with Matrigel (BD Biosciences); 5×10^6 cells per injection were used for HT1376 and Karpas-422 cell lines and 1×10^7 cells per injection for HT1197 cells. […] Mice undergoing extended dosing holidays due to body weight loss (>10 days, n=2 mice in the 150 mg/kg Compound 1 HT1376 group only), were censored from the study and not included in the data presented.
Tumor size was measured thrice weekly in two dimensions using a caliper, and the volume was expressed in mm3 using the formula: V=0.5a×b2 where a and b are the long and short diameters of the tumor, respectively. TGI was calculated for each group using the formula: TGI (%)=[1−(Ti−T0)/(Vi−V0)]×100; Ti is the average tumor volume of a treatment group on a certain day, T0 is the average tumor volume of the treatment group on the day of treatment start, Vi is the average tumor volume of the vehicle control group on the same day with Ti, and V0 is the average tumor volume of the vehicle group on the day of treatment start.
To further explore the potential dose dependence of Compound 1 on tumor growth inhibition in vivo, HT1376 xenograft studies were carried out using Compound 1 doses from 10 to 150 mg/kg QD orally once daily (PO, QD). […]

[4] = CB17 SCID, mouse, in vivo, 75 mg/kg
[5] = Day 1, 75 mg/kg, HT1376 xenograft mouse, plasma

## COc1cc(C)[nH]c(=O)c1CNC(=O)c1c(C)n([C@H](C)C2CCN(CC(F)(F)F)CC2)c2ccccc12 [CPI-1205]
[1]; [4]
  Cmax: 50800 ng/mL
  T1/2: 1.24 h
  Tmax: 0.50 h
[1]; mouse, in vivo, 75 mg/kg
  AUClast (hg*ng/mL): 59900 hg*ng/mL
[2]
  GI50: 574 nM
[3]
  tumor growth inhibition (TGI) compared to vehicle: 40%

## Cc1cc(C)c(CNC(=O)c2cc(Cl)c3c(c2C)O[C@@](C)([C@H]2CC[C@H](N(C)C)CC2)O3)c(=O)[nH]1 [valemetostat]
[1]; [5]
  AUClast (hg*ng/mL): 7600 hg*ng/mL
  Cmax: 3090 ng/mL
  T1/2: 3.00 h
  Tmax: 1.33 h
[2]
  GI50: 18 nM
[3]
  tumor volume course during treatment: did not reach full regression

## COc1cc(C)[nH]c(=O)c1CN1CCc2c(Cl)cc([C@H](OC)C3COC3)c(Cl)c2C1=O [PF-06821497]
[1]; mouse, in vivo, 75 mg/kg
  AUClast (hg*ng/mL): 3380 hg*ng/mL
  Cmax: 3740 ng/mL
  T1/2: 1.01 h
  Tmax: 0.50 h
[2]
  GI50: ~5 nM
[3]
  tumor growth inhibition (TGI) compared to vehicle: 41%

## CCN(c1cc(-c2ccc(CN3CCOCC3)cc2)cc(C(=O)NCc2c(C)cc(C)[nH]c2=O)c1C)C1CCOCC1 [tazemetostat]
[1]; [5]
  AUClast (hg*ng/mL): 23200 hg*ng/mL
  Cmax: 9530 ng/mL
  T1/2: 1.43 h
  Tmax: 0.50 h
[2]
  GI50: 385 nM
[3]
  tumor growth inhibition (TGI) compared to vehicle: 32%

## Cc1ncccc1-c1cnc(NCc2c(F)ccc3c2CCO3)n2cnnc12 [MAK683]
[1]; mouse, in vivo, 75 mg/kg
  AUClast (hg*ng/mL): 13100 hg*ng/mL
  Cmax: 5660 ng/mL
  T1/2: 1.18 h
  Tmax: 1.00 h
[2]
  GI50: 73 nM
